Reference: patent US20230085307A1, “PYRIDAZINONE COMPOUND AND HERBICIDE” (NISSAN CHEMICAL CORPORATION, priority 2019, published 2023)

Experiments:
Chinese sprangletop = assay: Test Example 3: herbicidal effect by foliage application, Wagner pot (Table 18, symbol D); format: in vivo, chinese sprangletop (Leptochloa chinensis); conditions: amount of applied herbicide 320 g/ha
How it was run: (§1)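 Plants were sown in alluvial soil held under 0.1–0.5 cm standing water and grown 14 days in a greenhouse at 25–30 °C. An emulsifiable formulation, water-diluted to the set dose, was then sprayed onto the foliage, and effects were scored three weeks later using previously defined criteria.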

barnyard grass [1] = assay: Test Example 5: herbicidal effect by foliage application, plastic box (Table 20, symbol H); format: in vivo, barnyard grass (Echinochloa crus-galli); conditions: foliage application, evaluated three weeks after application; for herbicidal effect on H: barnyard grass (criteria 0-5): 320 g/ha
How it was run: (§2)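 Foliar spray test: emulsion formulation diluted in water to a set application rate, sprayed onto 14-day-old plants raised in diluvial soil at 25° C to 30° C under glass. Both herbicidal effect and crop effect rated visually three weeks later.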

windgrass [2] = assay: Test Example 4: herbicidal effect by soil treatment (Table 19, symbol L); format: in vivo, windgrass (Apera spica-venti); conditions: amount of applied herbicide 320 g/ha
How it was run: (§3)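 Herbicidal effect was rated 3 weeks after treatment, using the scoring criteria of an earlier test. The compound, formulated as an emulsion and diluted in water to a set herbicide amount, had been sprayed uniformly on soil over freshly sown seeds. Growth took place in a greenhouse at 25° C. to 30° C.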

Italian ryegrass = assay: Test Example 4: herbicidal effect by soil treatment (Table 19, symbol K); format: in vivo, Italian ryegrass (Lolium multiflorum); conditions: amount of applied herbicide 320 g/ha
How it was run: as §3

rice flat sedge = assay: Test Example 3: herbicidal effect by foliage application, Wagner pot (Table 18, symbol E); format: in vivo, rice flat sedge (Cyperus iria); conditions: amount of applied herbicide 320 g/ha
How it was run: as §1

chickweed [3] = assay: Test Example 5: herbicidal effect by foliage application, plastic box (Table 20, symbol P); format: in vivo, common chickweed (Stellaria media); conditions: foliage application, evaluated three weeks after application; for herbicidal effect on P: chickweed (criteria 0-5): 320 g/ha
How it was run: as §2

wild oat = assay: Test Example 5: herbicidal effect by foliage application, plastic box (Table 20, symbol I); format: in vivo, wild oat (Avena fatua); conditions: foliage application, evaluated three weeks after application; for herbicidal effect on I: wild oat (criteria 0-5): 320 g/ha
How it was run: as §2

southern crabgrass = assay: Test Example 5: herbicidal effect by foliage application, plastic box (Table 20, symbol F); format: in vivo, southern crabgrass (Digitaria ciliaris); conditions: foliage application, evaluated three weeks after application; for herbicidal effect on F: southern crabgrass (criteria 0-5): 320 g/ha
How it was run: as §2

blackgrass = assay: Test Example 5: herbicidal effect by foliage application, plastic box (Table 20, symbol J); format: in vivo, blackgrass (Alopecurus myosuroides); conditions: foliage application, evaluated three weeks after application; for herbicidal effect on J: blackgrass (criteria 0-5): 320 g/ha
How it was run: as §2

chickweed [4] = assay: Test Example 4: herbicidal effect by soil treatment (Table 19, symbol P); format: in vivo, common chickweed (Stellaria media); conditions: amount of applied herbicide 320 g/ha
How it was run: as §3

oval-leafed pondweed = assay: Test Example 1: herbicidal activity, application before weed generation under submerged conditions (Table 16, symbol C); format: in vivo, oval-leafed pondweed (Monochoria vaginalis); conditions: 320 g/ha applied herbicide
How it was run: (§4)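 Alluvial soil was flooded to 4 cm depth, weed seeds were sown mixed and 2.5-leaf rice seedlings were transplanted. On sowing day, the compound's emulsion, diluted in water to a set dose, was applied to the water surface. Plants grew at 25–30 °C and were scored 0–5 after three weeks.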

persian speedwell = assay: Test Example 4: herbicidal effect by soil treatment (Table 19, symbol R); format: in vivo, Persian speedwell (Veronica persica); conditions: amount of applied herbicide 320 g/ha
How it was run: as §3

windgrass [5] = assay: Test Example 5: herbicidal effect by foliage application, plastic box (Table 20, symbol L); format: in vivo, windgrass (Apera spica-venti); conditions: foliage application, evaluated three weeks after application; for herbicidal effect on L: windgrass (criteria 0-5): 320 g/ha
How it was run: as §2

Japanese bulrush = assay: Test Example 1: herbicidal activity, application before weed generation under submerged conditions (Table 16, symbol B); format: in vivo, Japanese bulrush (Schoenoplectus juncoides); conditions: 320 g/ha applied herbicide
How it was run: as §4

barnyard grass [6] = assay: Test Example 3: herbicidal effect by foliage application, Wagner pot (Table 18, symbol H); format: in vivo, barnyard grass (Echinochloa crus-galli); conditions: amount of applied herbicide 320 g/ha
How it was run: as §1

velvetleaf = assay: Test Example 5: herbicidal effect by foliage application, plastic box (Table 20, symbol M); format: in vivo, velvetleaf (Abutilon theophrasti); conditions: foliage application, evaluated three weeks after application; for herbicidal effect on M: velvetleaf (criteria 0-5): 320 g/ha
How it was run: as §2

lambsquarters = assay: Test Example 4: herbicidal effect by soil treatment (Table 19, symbol O); format: in vivo, lambsquarters (Chenopodium album); conditions: amount of applied herbicide 320 g/ha
How it was run: as §3

late watergrass = assay: Test Example 1: herbicidal activity, application before weed generation under submerged conditions (Table 16, symbol A); format: in vivo, late watergrass (Echinochloa oryzicola); conditions: 320 g/ha applied herbicide
How it was run: as §4

redroot pigweed = assay: Test Example 5: herbicidal effect by foliage application, plastic box (Table 20, symbol N); format: in vivo, redroot pigweed (Amaranthus retroflexus); conditions: foliage application, evaluated three weeks after application; for herbicidal effect on N: redroot pigweed (criteria 0-5): 320 g/ha
How it was run: as §2

Row | Compound | herbicidal effect on D: Chinese sprangletop (Chinese sprangletop) | herbicidal effect on H: barnyard grass (criteria 0-5) (barnyard grass [1]) | herbicidal effect on L: windgrass (windgrass [2]) | herbicidal effect on K: Italian ryegrass (Italian ryegrass) | herbicidal effect on E: rice flat sedge (rice flat sedge) | herbicidal effect on P: chickweed (criteria 0-5) (chickweed [3]) | herbicidal effect on I: wild oat (criteria 0-5) (wild oat) | herbicidal effect on F: southern crabgrass (criteria 0-5) (southern crabgrass) | herbicidal effect on J: blackgrass (criteria 0-5) (blackgrass) | herbicidal effect on P: chickweed (chickweed [4]) | Herbicidal effect on C: oval-leafed pondweed (grade 0-5) (oval-leafed pondweed) | herbicidal effect on R: persian speedwell (persian speedwell) | herbicidal effect on L: windgrass (criteria 0-5) (windgrass [5]) | Herbicidal effect on B: Japanese bulrush (grade 0-5) (Japanese bulrush) | herbicidal effect on H: barnyard grass (barnyard grass [6]) | herbicidal effect on M: velvetleaf (criteria 0-5) (velvetleaf) | herbicidal effect on O: lambsquarters (lambsquarters) | Herbicidal effect on A: late watergrass (grade 0-5) (late watergrass) | herbicidal effect on N: redroot pigweed (criteria 0-5) (redroot pigweed) | also measured
1 | CCCC(=O)Oc1c(C)nn(C)c(=O)c1-c1c(-c2ccc(C(F)F)cc2)sc2ccc(F)cc12 [2-228] | 4 (Herbicidal rate of 70% or more and less than 90%) | 5 (Herbicidal rate of 90% or more (almost completely withered)) | 0 (Herbicidal rate of 5% or less (almost no effect)) | 0 (Herbicidal rate of 5% or less (almost no effect)) | 5 (Herbicidal rate of 90% or more (almost completely withered)) | 5 (Herbicidal rate of 90% or more (almost completely withered)) | 0 (Herbicidal rate of 5% or less (almost no effect)) | 4 (Herbicidal rate of 70% or more and less than 90%) | 3 (Herbicidal rate of 40% or more and less than 70%) | 4 (Herbicidal rate of 70% or more and less than 90%) | 4 (Herbicidal rate of 70% or more and less than 90%) | 5 (Herbicidal rate of 90% or more (almost completely withered)) | 0 (Herbicidal rate of 5% or less (almost no effect)) | 4 (Herbicidal rate of 70% or more and less than 90%) | 5 (Herbicidal rate of 90% or more (almost completely withered)) | 5 (Herbicidal rate of 90% or more (almost completely withered)) | 4 (Herbicidal rate of 70% or more and less than 90%) | 5 (Herbicidal rate of 90% or more (almost completely withered)) | 5 (Herbicidal rate of 90% or more (almost completely withered)) | –
2 | CCSc1ccc(-c2sc3ccc(F)cc3c2-c2c(O)c(C)nn(C)c2=O)cc1 [2-244] | 5 (Herbicidal rate of 90% or more (almost completely withered)) | 5 (Herbicidal rate of 90% or more (almost completely withered)) | 3 (Herbicidal rate of 40% or more and less than 70%) | 4 (Herbicidal rate of 70% or more and less than 90%) | 5 (Herbicidal rate of 90% or more (almost completely withered)) | 5 (Herbicidal rate of 90% or more (almost completely withered)) | 5 (Herbicidal rate of 90% or more (almost completely withered)) | 5 (Herbicidal rate of 90% or more (almost completely withered)) | 5 (Herbicidal rate of 90% or more (almost completely withered)) | 1 (Herbicidal rate of 5% or more and less than 20%) | 0 (Herbicidal rate of 5% or less (almost no effect)) | 5 (Herbicidal rate of 90% or more (almost completely withered)) | 5 (Herbicidal rate of 90% or more (almost completely withered)) | 0 (Herbicidal rate of 5% or less (almost no effect)) | 5 (Herbicidal rate of 90% or more (almost completely withered)) | 5 (Herbicidal rate of 90% or more (almost completely withered)) | 4 (Herbicidal rate of 70% or more and less than 90%) | 3 (Herbicidal rate of 40% or more and less than 70%) | 5 (Herbicidal rate of 90% or more (almost completely withered)) | –
3 | Cc1nn(C)c(=O)c(-c2c(-c3ccc(SC4CC4)cc3)sc3ccc(F)cc23)c1O [2-254] | 5 (Herbicidal rate of 90% or more (almost completely withered)) | – | 3 (Herbicidal rate of 40% or more and less than 70%) | 5 (Herbicidal rate of 90% or more (almost completely withered)) | 5 (Herbicidal rate of 90% or more (almost completely withered)) | – | – | – | – | 4 (Herbicidal rate of 70% or more and less than 90%) | 1 (Herbicidal rate of 5% or more and less than 20%) | 5 (Herbicidal rate of 90% or more (almost completely withered)) | – | 3 (Herbicidal rate of 40% or more and less than 70%) | 5 (Herbicidal rate of 90% or more (almost completely withered)) | – | 4 (Herbicidal rate of 70% or more and less than 90%) | 5 (Herbicidal rate of 90% or more (almost completely withered)) | – | H: barnyard grass, herbicidal effect (criteria 0-5) (barnyard grass [1]; AAH 320 g/ha): 5 (Herbicidal rate of 90% or more (almost completely withered)); P: chickweed, herbicidal effect (criteria 0-5) (chickweed [3]; AAH 320 g/ha): 5 (Herbicidal rate of 90% or more (almost completely withered)); I: wild oat, herbicidal effect (criteria 0-5) (wild oat; AAH 320 g/ha): 5 (Herbicidal rate of 90% or more (almost completely withered)); F: southern crabgrass, herbicidal effect (criteria 0-5) (southern crabgrass; AAH 320 g/ha): 5 (Herbicidal rate of 90% or more (almost completely withered)); J: blackgrass, herbicidal effect (criteria 0-5) (blackgrass; AAH 320 g/ha): 5 (Herbicidal rate of 90% or more (almost completely withered)); L: windgrass, herbicidal effect (criteria 0-5) (windgrass [5]; AAH 320 g/ha): 5 (Herbicidal rate of 90% or more (almost completely withered)); M: velvetleaf, herbicidal effect (criteria 0-5) (velvetleaf; AAH 320 g/ha): 5 (Herbicidal rate of 90% or more (almost completely withered)); N: redroot pigweed, herbicidal effect (criteria 0-5) (redroot pigweed; AAH 320 g/ha): 5 (Herbicidal rate of 90% or more (almost completely withered))
